Measurements from US20210145716A9, “COMPOSITION FOR HAIR FRIZZ REDUCTION” (The Procter & Gamble Company, priority 2015, published 2021).

Test: Expert rating of hair switches for frizz, clean feel and greasy feel
Conditions: 1% in ethanol/water leave-on, pH 4.2
Procedure: Additional leave-on treatment compositions are prepared (Tables 1 and 2) according to the procedure described above, which are used to treat hair switches using the procedure described above (amount of 0.10 g of composition per g of hair). The switch is kept at high humidity (above 85%) for 2 hours. Then, ten experts are asked to rate each hair switch in terms of frizz, clean feel, and greasy feel, based on a 5 point scale, 5 being the highest and 1 being the lowest rating. Acceptable values are: • For frizz, less than 2 (lower number corresponds to less frizz); • For no greasy feel less than 3, (lower number corresponds to less greasy feel), and • For clean feel greater than 3 (higher number corresponds to cleaner feel).

Q: For O=C(OCCO)c1ccccc1O [2-Hydroxyethyl salicylate], which “Hair switch rating summary (in words)” value is on record?
A: frizz protection with clean feel and without greasy feel negative

Q: For O=C(O)c1cc(Cl)ccc1O [5-Chlorosalicylic acid], which “Hair switch rating summary (in words)” value is on record?
A: fizz protection with clean feel and without greasy feel negative

Q: With O=C(O)c1ccc(O)cc1O [2,4-Dihydroxybenzoic acid] as the compound, how does the “Hair switch rating summary (in words)” value read?
A: fizz protection with clean feel and without greasy feel negative

Q: Which “Hair switch rating summary (in words)” value does the source give for O=S(=O)(O)c1ccc(O)cc1 [4-Hydroxybenzenesulphonic acid] here?
A: fizz protection with clean feel and without greasy feel negative

Q: With CCCCCCCCC(CO)CCCCCC (stereo not shown) [2-Hexyl-1-decanol] as the compound, how does the “Hair switch rating summary (in words)” value read?
A: frizz protection with clean feel and without greasy feel negative

Q: Which “Hair switch rating summary (in words)” value does the source give for CC(C)CCCCCCCCCCCCCCCOC(=O)CCCCCCCCCCCCCCC(C)C [Isostearyl isostearate] here?
A: frizz protection with clean feel and without greasy feel negative

Q: Which “Hair switch rating summary (in words)” value does the source give for O=C(O)c1ccccc1O [Salicylic acid] here?
A: fizz protection with clean feel and without greasy feel negative
